Here are results for 17 compounds from patent US20260184692A1, “HETEROCYCLIC COMPOUNDS, PREPARATION METHODS AND USES THEREOF” (InventisBio Co., Ltd., priority 2022, published 2026).

pIC50: −log10 of the molar value.

One data set relates to OVCAR3 Cells. The data set can be described thus: OVCAR3 Cell Viability Assay (CellTiter-Glo). The data set is classed as cell-based. The note with it: Homo sapiens, OVCAR-3, 144 h, 6 days incubation, read-out: OVCAR3 CTG IC50. As for the experimental part: (§1) OVCAR3 Cells (ATCC, Cat #HTB-161) were seeded at a density of 2000 cells/well in a 96-well clear bottom plate (Greiner, Cat #655098) in 100 μL of complete media (RPMI1640+20% FBS+0.01 mg/mL human insulin). One hundred microliter of complete media was added into the blank well (column 1) for low control. Cells were allowed to adhere to the plate overnight in the incubator at 37° C., 5% CO2. On the following day, 0.5 μL of serially-diluted compounds were added to the cells (columns 2-10) and incubated for 6 days at 37 C, 5% CO2 (final 0.5% DMSO concentration); 0.5 μL of DMSO solution was added into the wells (column 11) for high control. Cell viability was detected according to the CellTiter-Glo Luminescent Cell Viability Assay Kit (Promega, Cat #G7573). Luminescence was recorded on the Tecan Spark plate reader. Inhibition rate (IR) of the tested compounds was determined by the following formula: IR (%)=(1−(RLUcompound−RLUlow control)/(RLUhigh control−RLUlow control))×100%. The IC50 value was calculated using the non-linear regression equation: Y=Bottom+(Top−Bottom)/(1+10^((Log IC50−X)×HillSlope)), where X is Log of compound concentration, Y is percent inhibition (IR (%)), Top and Bottom are plateaus in same units as Y.
Background: In ATP-based viability assays light output follows the ATP content of the culture.

In a further data set the target is T1, P450 2C9 (Homo sapiens, UniProt P11712).
T1 construct: incubation with known industry-accepted CYP450 substrates, test articles and microsomes (HLM); from tissue; host or cells: liver microsomes (HLM)
T1 sequence (P11712 whole entry): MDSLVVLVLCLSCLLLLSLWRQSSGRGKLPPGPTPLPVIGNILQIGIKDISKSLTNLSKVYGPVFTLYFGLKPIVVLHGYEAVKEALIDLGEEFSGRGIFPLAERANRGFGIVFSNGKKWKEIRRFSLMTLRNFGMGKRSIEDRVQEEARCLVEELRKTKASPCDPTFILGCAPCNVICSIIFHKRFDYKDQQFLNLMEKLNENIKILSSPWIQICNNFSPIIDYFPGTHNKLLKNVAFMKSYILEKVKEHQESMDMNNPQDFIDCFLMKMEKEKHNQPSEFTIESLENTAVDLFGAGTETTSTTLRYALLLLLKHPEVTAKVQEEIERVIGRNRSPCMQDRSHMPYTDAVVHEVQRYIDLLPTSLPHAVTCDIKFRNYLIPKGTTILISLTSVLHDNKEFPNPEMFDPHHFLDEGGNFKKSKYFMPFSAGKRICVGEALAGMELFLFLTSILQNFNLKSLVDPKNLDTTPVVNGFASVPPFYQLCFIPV
The data set can be described thus: In Vitro Cytochrome P450 Inhibition Study. The data set is classed as in vitro ADME. As to conditions: human liver microsomes (HLM), test compound 0.137 μM to 10 μM, 10 min at 37 °C. As for the experimental part:
CYP inhibition was evaluated by monitoring corresponding metabolite decrease after incubation with known industry-accepted CYP450 substrates, test articles and microsomes (HLM).
Eight reaction wells with 30 μL of a solution containing 100 mM potassium phosphate, pH 7.4 and 1:3 serial dilutions of the test compound were prepared along with eight wells of 1:3 serial dilutions of Sulfaphenazole (a positive control inhibitor). The assay plates were pre-warmed after 15 μL of probe substrate was added into appropriate wells. Then the reactions were initiated by adding 15 μL of a pre-warmed 8 mM NADPH solution resulting in a final NADPH concentration of 2 mM. The concentrations of test compound ranged from 0.137 μM to 10 μM. A zero time-point control reaction was prepared by adding 135 μL acetonitrile (ACN) containing tolbutamide (200 ng/mL) as internal standard (IS) to 30 μL. of the reaction solution to inactivate the enzymes before adding the probe substrate. A control reaction with no inhibitor was also prepared. After a suitable incubation at 37° C., 10 min, the reactions were terminated by the addition of 135 μL ACN containing IS. The reactions were prepared and analyzed for the metabolite forms of the probe substrate using LC-MS/MS.
(Liver microsomes are a subcellular fraction often used to study metabolism.)

The nature of data set [1]: Human Plasma Protein Binding Assay (dialysis). The data set is classed as in vitro ADME. As to conditions: 1 μM compound, dialysis 6 hr at 37 °C. As for the experimental part: The plasma protein binding of compounds in human plasma was determined using a dialysis method. The dialysis membrane strips were prepared by soaking them in ultra-pure water for about 1 hr at room temperature, followed by separation and soaking in ethanol:water (20:80 v:v) for about 20 min, and a final rinse with ultra-pure water. Prior to use, the membranes were rinsed and soaked for another 20 min in ultra-pure water.
The blank plasma samples were thawed, centrifuged and verified its pH values. Only the plasma with pH between 7.0-8.0 was used in the experiment. The final concentration of compound in the spiked plasma is 1 μM, with final DMSO<=1%. All samples were prepared in triplicates. The time zero (T0) samples was used for determining the recovery of the compound of interest after dialysis. It was prepared in the same way as other dialysis samples except it was stored at 2-8° C. before LC-MS/MS analysis.
The other spiked plasma samples were loaded onto the dialysis device and incubated at and 37±1° C. with 5% CO2 for 6 hr. At the end of the dialysis, aliquots of samples from the plasma and buffer sides of the dialysis device were taken and processed for LC-MS/MS analysis.
The % Unbound, % Bound, and % Recovery of the compounds were calculated from the peak area ratios of the analyte and internal standard in the plasma and buffer samples as shown in the following equations:
[formula] [formula] [formula] • where [F] is the peak area ratio of analyte/internal standard on the buffer (receiver) side of the membrane; [T] is the peak area ratio of analyte/internal standard on the plasma (donor) side of the membrane; [T0] is the peak area ratio of analyte/internal standard in the plasma sample at time zero.

The subject of the next data set is HCC1806 Cells. The data set can be described thus: HCC1806 Cell Viability Assay (CellTiter-Glo). The data set is classed as cell-based. As to conditions: Homo sapiens, 144 h, 6 days incubation, read-out: HCC1806 CTG IC50. As for the experimental part:
as §1, with “HCC1806 Cells” for “OVCAR3 Cells”, “Cat #CRL-2335)” for “Cat #HTB-161)”, “of 500” for “of 2000”, “media (RPMI1640+10% FBS).” for “media (RPMI1640+20% FBS+0.01 mg/mL human insulin).”, “blank wells” for “blank well”, “at 37° C.,” for “at 37 C,”

Another data set is described as follows: Mouse PK Assay. The note with it: plasma, male BALB/c mouse; for MRT: IV; for half-life: single oral dose 5 mg/kg, read-out: PO T1/2 (converted). The data set is classed as in vivo.
A short description of data set [2]: Human Microsomal Clearance Assay. As to conditions: pH 7.4, human liver microsomes 0.5 mg/mL, 1 μM compound, 2 mM NADPH; for CLint scaled at 1 μM: in vitro intrinsic clearance. The data set is classed as in vitro ADME. As for the experimental part: This study aimed to assess the metabolic stability of a compound in human liver microsomes using a microsomal clearance assay.
A mixture containing 100 mM potassium phosphate, pH 7.4, 0.5 mg/mL liver microsomes, 2 mM NADPH, and 1 μM compound were prepared and added to 96-well plate. The plates were then incubated at 37° C. for different time points (0, 5, 15, 30, 45 minutes) and the reaction was stopped with acetonitrile solution containing an internal standard. The samples were then analyzed by LC/MS/MS to determine how much of the compound remained at each time point. The elimination rate constant and half-life were calculated from the data as follows: Elimination rate constant (k)=−slope; Half-life (T1/2)=0.693/k.
The in vitro intrinsic clearance, Clint, was calculated from the T1/2 as follows: Clint=(0.693/T1/2)×(1/(microsomal protein concentration (0.5 mg/mL)))×Physiological Scaling Factor.

On to `N#Cc1ccc(N2CC3(CCC4(CC4)CC3)c3cc(NS(=O)(=O)CCO)ncc3C2=O)nc1N1CCC(F)(F)CC1` [Compound 80], for which the pIC50 is above 6.70 in the data set on OVCAR3 Cells and below 5.00 on P450 2C9.

In the case of `CCS(=O)(=O)Nc1ccc2c(c1)C1(CCC3(CC3)CC1)CN(c1ccc(C#N)c(S(=O)(=O)NC(C)(C)C)c1)C2=O` [Compound 120], the fraction unbound at 6 hr, 1 μM in data set [1] came out at 0.0122. In addition, in the data set with OVCAR3 Cells, the pIC50 was above 6.70.

Regarding `CC1(C)CCC2(CC1)CN(c1ccc(C#N)c(N3CCC(F)(F)CC3)n1)C(=O)c1ccc(NS(=O)(=O)CCO)cc12` [Compound 90], the pIC50 is above 6.70 with OVCAR3 Cells and below 5.00 on P450 2C9.

`O=C1c2ccc(NS(=O)(=O)CCO)cc2C2(CCC3(CC3)CC2)CN1c1ccnc(NC2CCC(F)(F)C2)n1` (single isomer, unassigned) [Compound 71] had a fraction unbound at 6 hr, 1 μM in data set [1] of 0.0014. Besides, the pIC50 with OVCAR3 Cells was above 6.70.

For the compound `O=C1c2ccc(NS(=O)(=O)CCO)cc2C2(CCC3(CC3)CC2)CN1c1ccnc(N2CCC(F)(F)CC2)n1` [Compound 1], the pIC50 in the data set on OVCAR3 Cells was above 6.70. In addition, in the data set on HCC1806 Cells, the pIC50 is above 6.70. In the data set “Mouse PK Assay”, the MRT amounted to 7.5 h and the half-life is 4.8 h.

Consider `N#Cc1ccc(N2CC3(CCC4(CC4)CC3)c3cc(NS(=O)(=O)CCO)c(F)cc3C2=O)nc1N1CCC(F)(F)CC1` [Compound 75], for which, in “Mouse PK Assay”, the MRT turned out to be 8 h and the half-life was 6.3 h.

Consider `O=C1c2ccc(NS(=O)(=O)CCO)cc2C2(CCC3(CC3)CC2)CN1c1ccc2c(n1)N1CCC(F)(F)CC1CO2` (stereo not shown) [Compound 31], for which the pIC50 in the data set with OVCAR3 Cells and with HCC1806 Cells was 5.70 to 6.70 each time.

Take `CC1(C)CCC2(CC1)CN(c1ccc(C#N)c(NC3CC(F)(F)C3)n1)C(=O)c1ccc(NS(=O)(=O)CCO)cc12` [Compound 95]: the pIC50 with OVCAR3 Cells is above 6.70. In data set [2], the half-life at 1 μM was determined as 1.98 h and the CLint scaled at 1 μM came to 14.6 mL/min/kg.

Turning to `COCCOc1ccc(N2CC3(CCC4(CC4)CC3)c3cc(NS(=O)(=O)CCO)ccc3C2=O)nc1N1CCC(F)(F)CC1` [Compound 136], the pIC50 in the data set on OVCAR3 Cells was above 6.70; against P450 2C9 it was below 5.00.

In data set [2], `N#Cc1ccc(N2CC3(CCC4(CC4)CC3)c3cc(NS(=O)(=O)CCO)ccc3C2=O)nc1NC1CCC(F)(F)C1` (single isomer, unassigned) [Compound 110] displayed a half-life at 1 μM of 2.52 h and a CLint scaled at 1 μM below 12.4 mL/min/kg.

In data set [1], `O=C1c2ccc(NS(=O)(=O)CCO)cc2C2(CCC3(CC3)CC2)CN1c1ccnc(NC2CC(F)(F)C2)n1` [Compound 21] yielded a fraction unbound at 6 hr, 1 μM of 0.002. In addition, in the data set with OVCAR3 Cells, the pIC50 was above 6.70.

In the case of `N#Cc1ccc(N2CC3(CCC4(CCC4)CC3)c3cc(NS(=O)(=O)CCO)ccc3C2=O)nc1N1CCC(F)(F)CC1` [Compound 116], the pIC50 in the data set on OVCAR3 Cells was above 6.70. Moreover, the pIC50 at P450 2C9 is 5.17. Also, in the data set “Mouse PK Assay”, the MRT stood at 6.9 h and the half-life is 4.6 h.

For the compound `O=C1c2ccc(NS(=O)(=O)CCO)cc2C2(CCC3(CC3)CC2)CN1c1cccc(N2CCC3CC32)n1` (stereo not shown) [Compound 26], the pIC50 in the data set on OVCAR3 Cells and in the data set with HCC1806 Cells was 5.70 to 6.70 in each case.

On to `CN(c1cccc(N2CC3(CCC4(CC4)CC3)c3cc(NS(=O)(=O)CCO)ccc3C2=O)n1)C1CC(F)(F)C1` [Compound 34], for which the pIC50 in the data set on OVCAR3 Cells and with HCC1806 Cells was above 6.70 each time.

As for `O=C1c2ccc(NS(=O)(=O)CCO)cc2C2(CCC3(CC3)CC2)CN1c1ccnc(N2CCC(F)(F)C2)n1` [Compound 12], the pIC50 with OVCAR3 Cells and with HCC1806 Cells was 5.70 to 6.70 in each case.

Take `Cc1cc(NC(=O)c2ccc(NS(=O)(=O)CCO)cc2C2=CCC3(CC2)CC3)nc(N2CCC(F)(F)CC2)n1` [Compound 6]: the pIC50 in the data set with OVCAR3 Cells and with HCC1806 Cells was above 6.70 throughout.

As for `N#Cc1ccc(N2CC3(CCC4(CC4)CC3)c3cc(NS(=O)(=O)CCO)ccc3C2=O)nc1NC1CC(F)(F)C1` [Compound 56], the pIC50 in the data set on OVCAR3 Cells was above 6.70. In data set [2], the half-life at 1 μM amounted to 2.37 h and the CLint scaled at 1 μM was below 12.4 mL/min/kg.

By pIC50 is commonly meant the IC50 on a negative log10 scale, so that one unit is a factor of ten. Broadly, the fraction unbound is the share of the substance not bound to proteins or other matrix. A low value points to extensive binding. What is called MRT is a mean duration of stay, worked out from the concentration-time curve. A word on the CLint scaled: it is the capacity of the preparation to metabolise the compound, expressed as a volume cleared per time.
